These results are taken from patent US11186603B2, “Heparan sulfate glycomimetic compounds and their pharmaceutical and cosmeceutical uses” (VICTORIA LINK LIMITED, priority 2017, dated 2021).

Test [1] has as its system human dermal fibroblast cell line, CRL2071. As to the kind of experiment: Production of hyaluronan (ELISA). In kind it is cell-based. Particulars: liberated, 10 μM, 72 h. As to the method: Cells from the human dermal fibroblast cell line, CRL2071 (passages 12-14), obtained from normal breast skin of a person, were allowed to attach for 6-8 hours before the addition of the test compounds. After 72 h of exposure to the test articles the media was removed, cells counted and the cell-associated fraction extracted. The media and cell-associated fraction were analysed for the concentration of hyaluronan using a Hyaluronan Detection Kit ELISA.
(§1) The test compounds, positive controls and no treatment media were added to the flasks (2.5 ml/flask) and cells were incubated for 72 h before removal of the supernatant. After removal of the supernatant, cell monolayers were trypsinsed with 2.5 ml of 0.025% trypsin/[…] in PBS to each flask. After cell detachment (7-10 min), 1 ml of the cell/trypsin mixture was added to a 20 ml counting vial containing 9 ml of normal saline. The cells were quantitated with a Coulter Counter Z2.
In some treatments cells were found floating. They were collected, counted and subjected to viability testing using 1% trypan blue staining. The remaining 1.5 ml of trypsin/cell mixture was sonicated with a Branson tip-probed sonicator for 1 min, setting 6 before centrifugation at 10,000 rpm for 10 min. The supernatant was removed and used in the hyaluronan ELISA for the quantitation of cell-associated hyaluronan.

Test [2] shares this test system. As to the kind of experiment: Production of collagen type I (ELISA). In kind it is cell-based. The method, then:
Cells from the human dermal fibroblast cell line, CRL2071 (passages 12-14), obtained from normal breast skin of a person, were allowed to attach for 6-8 hours before the addition of the test compounds. After 72 h of exposure to the test articles the media was removed, cells counted and the cell-associated fraction extracted. The media and cell-associated fraction were analysed for the concentration of collagen type I using a Chondrex Human type I Collagen Detection Kit ELISA (Cat #6021).
After complete dissolution the solutions were sterile filtered through a […] syringe filter and kept at 4° C. until use. Prior to each experiment dilutions were freshly prepared by diluting to 100 nM, 1 μM or 10 μM in cell-specific media.
as §1
In some treatments cells were found floating. They were collected, counted and subjected to viability testing using 1% trypan blue staining. The remaining 1.5 ml of trypsin/cell mixture was sonicated with a Branson tip-probed sonicator for 1 min, setting 6 before centrifugation at 10,000 rpm for 10 min. The supernatant was removed and used in the collagen ELISA for the quantitation of cell-associated collagen.
In general terms: An ELISA detects its analyte on a solid surface through an enzyme-linked reagent.

Test [3] deals with bacterial collagenase type II from Clostridium histolyticum. As to the kind of experiment: Colorimetric gelatinolytic assay, collagenase inhibition. In kind it is biochemical. The following applies: 10 μM. The method, then: A colorimetric gelatinolytic assay was used to evaluate the effects of heparanase inhibitors on the activity of bacterial collagenase type II from Clostridium histolyticum. The reaction mixture was prepared in a total volume of 20 μl for each well of the microplate/inhibition assay. First, 1 ul of 100 ng of bacterial collagenase and 2 μl of the heparanase inhibitor or positive control (50 μg/ml doxycycline) were added into each well of a 96-well plate and incubated at 37° C. for 60 min. On completion of the incubation, 10 μg of gelatin and 2 μl of 10× collagenase buffer (500 mM Tris-HCl, 100 mM CaCl2, and 1.5 M NaCl) were added to distilled water to obtain the final volume of 20 μl. The plate was then incubated at 37° C. for 4 h. Subsequently, the amount of gelatin remaining was quantified by the addition of 20 μl of 2.5% w/v of Coomassie Brilliant blue R-250 (Sigma-Aldrich) dissolved in 40% methanol/10% acetic acid, followed by shaking on an orbital shaker for 5 min. The supernatant was carefully removed by pipette to ensure that the gelatin pellet was not disturbed and 50 μl of dimethyl sulfoxide was added to dissolve the pellet. The plate was incubated at room temperature for 15 min followed by shaking on an orbital shaker for 5 min. The plate was then read in a Versa max microplate reader at 600 nm.

Test [4] deals with T1, Recombinant human heparanase (Homo sapiens, UniProt Q9Y251).
T1 construct: made in house; host or cells: insect cells
T1 sequence (Q9Y251 158-543 limits assumed): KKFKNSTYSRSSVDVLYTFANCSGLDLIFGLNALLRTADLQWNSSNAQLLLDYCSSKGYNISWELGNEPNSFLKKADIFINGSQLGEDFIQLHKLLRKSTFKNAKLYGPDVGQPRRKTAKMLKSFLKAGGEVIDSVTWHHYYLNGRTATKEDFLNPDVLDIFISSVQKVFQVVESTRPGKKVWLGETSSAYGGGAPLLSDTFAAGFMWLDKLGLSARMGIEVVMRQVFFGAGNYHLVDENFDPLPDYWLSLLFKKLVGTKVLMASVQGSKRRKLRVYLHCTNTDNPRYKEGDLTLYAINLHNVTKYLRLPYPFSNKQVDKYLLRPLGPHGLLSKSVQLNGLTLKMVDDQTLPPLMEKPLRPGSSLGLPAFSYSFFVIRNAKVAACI
T1 sequence (Q9Y251 36-109 limits assumed): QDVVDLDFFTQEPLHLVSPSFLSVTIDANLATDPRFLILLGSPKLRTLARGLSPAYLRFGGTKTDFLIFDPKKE
As to the kind of experiment: Heparanase inhibition colorimetric assay (fondaparinux / WST-1). It counts as biochemical. Particulars: FIGS. 1 to 3; inhibitor 1 μM, 10 μM and dose response. As to the method: The assay methodology used is described in Hammond, E., et al., Development of a colorimetric assay for heparanase activity suitable for kinetic analysis and inhibitor screening, Anal. Biochem. 2010, 396 (1), 112-116.
Reagents were obtained from Sigma-Aldrich. Assays were carried out in 96-well microplates (Costar 9018 EIA/RIA, Corning) that had been pretreated with a solution of 4% bovine serum albumin (BSA) in phosphate-buffered saline containing 0.05% Tween 20 (PBST) for 2 h at 37° C. The plates were then washed three times with PBST and shaken dry. Pretreated plates were stored at 4° C. for up to 2 weeks before use.
Recombinant human heparanase was expressed in insect cells and then purified from the cell medium into which it had been secreted. […] Fractions containing pure heparanase, determined by silver staining of sodium dodecyl sulfate-polyacrylamide gel electrophoresis (SDS-PAGE), were pooled, dialyzed into 10 mM sodium phosphate (pH 7.0), concentrated using Centriplus concentrating devices (Millipore), and stored at −80° C. until use.
Assay solutions (100 μl) were composed of 40 mM sodium acetate buffer (pH 5.0) and […] fondaparinux (GlaxoSmithKline) with or without inhibitor. […] The plates were resealed with adhesive tape and developed at 60° C. for 60 min, and the absorbance was measured at 584 nm (FLUOstar, BMG Labtech).
On the technique in general: Tetrazolium assays rely on reduction of a dye to a coloured formazan, in cell work by metabolically active cells.

“And” between values parts separate entries of the source, which are not always exact repeats. Equal entries are not always repeated. “Also recorded” adds a separate entry of the source.

Regarding `O=C(CCOCC(COCCC(=O)NCCCCCCOC1OC(COS(=O)(=O)[O-])C(OS(=O)(=O)[O-])C(OS(=O)(=O)[O-])C1OS(=O)(=O)[O-])(COCCC(=O)NCCCCCCOC1OC(COS(=O)(=O)[O-])C(OS(=O)(=O)[O-])C(OS(=O)(=O)[O-])C1OS(=O)(=O)[O-])COCCC(=O)NCCCCCCOC1OC(COS(=O)(=O)[O-])C(OS(=O)(=O)[O-])C(OS(=O)(=O)[O-])C1OS(=O)(=O)[O-])NCCCCCCOC1OC(COS(=O)(=O)[O-])C(OS(=O)(=O)[O-])C(OS(=O)(=O)[O-])C1OS(=O)(=O)[O-].[Na+].[Na+].[Na+].[Na+].[Na+].[Na+].[Na+].[Na+].[Na+].[Na+].[Na+].[Na+].[Na+].[Na+].[Na+].[Na+]` (stereo not shown) [Compound 17b], in test [1], the “Hyaluronan as % of No Treatment Control (Mean ± SD)” value was 167 ± 36p = 0.233%. Also, the “Collagen as % of No Treatment Control (Mean ± SD), Cell-associated” value in test [2] was 1,155 ± 25% and 2,371 ± 49% and 2,371%. Further, the “Collagenase inhibition as a % of the "No Treatment" control (Mean ± SD)” value in test [3] was determined as 74 ± 2%. Moreover, the “inhibition of heparanase (in words)” value in test [4] is on record as “particularly good inhibitors; also recorded: very good inhibition of heparanase”.
